The values below come from ChEMBL document CHEMBL5346923, “Novel pyridinium cationic pleuromutilin analogues overcoming bacterial multidrug resistance” (Eur J Med Chem, 2023).

SMILES strings stand for the structures. Active and inactive are the calls of the source. The rule behind the calls is not given here.

The subject of series [1] is Staphylococcus aureus. Nature of the series: Antibacterial activity against clinical isolate Staphylococcus aureus harbouring cfr gene assessed as inhibition of bacterial growth measured after 24 hrs by MH broth based assay. Format: functional.
Series [2] has as its system Staphylococcus aureus. The series can be described thus: Antibacterial activity against clinical isolate Staphylococcus aureus harbouring erm C gene assessed as inhibition of bacterial growth measured after 24 hrs by MH broth based assay. The format is functional.
Series [3] relates to Staphylococcus aureus. Nature of the series: Antibacterial activity against clinical isolate Staphylococcus aureus harbouring IsaA, cfr and erm A gene assessed as inhibition of bacterial growth measured after 24 hrs by MH broth based assay. The format is functional.
In series [4] the test system is Staphylococcus aureus. The series can be described thus: Antibacterial activity against clinical isolate Staphylococcus aureus harbouring tet38 gene assessed as inhibition of bacterial growth measured after 24 hrs by MH broth based assay. The format is functional.
For series [5], the system named is Streptococcus pneumoniae. Nature of the series: Antibacterial activity against clinical isolate Streptococcus pneumoniae harbouring ermB gene assessed as inhibition of bacterial growth measured after 24 hrs by MH broth based assay. Format: functional.
Series [6] has as its system Streptococcus suis. Nature of the series: Antibacterial activity against clinical isolate Streptococcus suis harbouring IsaE and ErmA gene assessed as inhibition of bacterial growth measured after 24 hrs by MH broth based assay. The format is functional.
The subject of series [7] is Enterococcus hirae. Nature of the series: Antibacterial activity against clinical isolate Enterococcus hirae assessed as inhibition of bacterial growth measured after 24 hrs by MH broth based assay. Format: functional.
The subject of series [8] is Escherichia coli. Nature of the series: Antibacterial activity against clinical isolate Escherichia coli harbouring NDM-17 gene assessed as inhibition of bacterial growth measured after 24 hrs by MH broth based assay. Format: functional.
Series [9] has as its system Klebsiella pneumoniae. Nature of the series: Antibacterial activity against clinical isolate Klebsiella pneumoniae harbouring blaKpc gene assessed as inhibition of bacterial growth measured after 24 hrs by MH broth based assay. Format: functional.
The test system of series [10] is Escherichia coli. Nature of the series: Antibacterial activity against Escherichia coli MG1655 assessed as inhibition of bacterial growth measured after 24 hrs by MH broth based assay. The format is functional.
In series [11] the test system is Escherichia coli. Nature of the series: Antibacterial activity against Escherichia coli MG1655 harbouring acrB gene assessed as inhibition of bacterial growth measured after 24 hrs by MH broth based assay. Format: functional.
Series [12] relates to Staphylococcus aureus. The series can be described thus: Antibacterial activity against methicillin-resistant Staphylococcus aureus ATCC 43300 assessed as reduction in log10 CFU at 3 times of MIC measured after 8 hrs by time-kill assay. The format is functional.
For series [13], the system named is Staphylococcus aureus. The series can be described thus: Antibacterial activity against clinical isolate multi-drug resistant Staphylococcus aureus sal assessed as reduction in log10 CFU at 1 times of MIC measured after 8 hrs by time-kill assay. Format: functional, organism-based.
Series [14] relates to Staphylococcus aureus. Nature of the series: Antibacterial activity against compound-resistant/methicillin-resistant Staphylococcus aureus assessed as inhibition of bacterial growth. Format: functional.
The test system of series [15] is Staphylococcus aureus. The series can be described thus: Antibacterial activity against tiamulin-resistant/methicillin-resistant Staphylococcus aureus assessed as inhibition of bacterial growth. Format: functional.
In series [16] the test system is Staphylococcus aureus. Nature of the series: Antibacterial activity against 4 times of MIC treated methicillin-resistant Staphylococcus aureus […] assessed as post-antibiotic sub-MIC effect by measuring time required for increase in log10 CFU/ml of bacteria at 0.25 to 0.5 times of MIC incubated for 1 hr by MH broth based assay. The format is functional.
Series [17] deals with Staphylococcus aureus. Nature of the series: Antibacterial activity against Staphylococcus aureus ATCC 29213 assessed as induction of cell membrane perforation at 4 times of MIC by SEM analysis. Format: functional, organism-based.
Series [18] concerns Staphylococcus aureus. The series can be described thus: Antibacterial activity against Staphylococcus aureus ATCC 29213 assessed as inhibition of bacterial division at 4 times of MIC by SEM analysis. Format: functional, organism-based.
For series [19], the system named is Staphylococcus aureus. The series can be described thus: Antibacterial activity against Staphylococcus aureus ATCC 29213 assessed as inhibition of bacterial GFP expression at 1 to 4 times of MIC incubated for 1 hr by fluorescence microscopic analysis. The format is functional, organism-based.
Series [20] in a line: Hemolytic activity in rabbit RBC at 200 ug/ml incubated for 5 mins by absorbance based analysis. Format: toxicity, cell-based, Oryctolagus cuniculus, Erythrocyte. The conditions noted are these: rabbit red blood cells (erythrocytes), at 200 µg/mL, read-out: Activity.
A short description of series [21]: Toxicity in po dosed BABL/C mouse assessed as lethal dose measured upto 14 days. The format is organism-based. The conditions noted are these: in vivo, time < 14 day.
Series [22] has as its system Staphylococcus aureus. The series can be described thus: Antibacterial activity against methicillin-resistant Staphylococcus aureus infected in rabbit RBC assessed as reduction in haemolysis by measuring haemoglobin level at 0.25 to 1 times of MIC by absorbance based analysis. Format: functional, organism-based. The conditions noted are these: Erythrocyte.
Series [23] relates to Staphylococcus aureus. The series can be described thus: Antibacterial activity against multi-drug resistant Staphylococcus aureus sa1 infected in BABL/C mouse assessed as reduction in bacterial load in lungs at 40 mg/kg, ip measured after 2 days. Format: functional. The conditions noted are these: time 2 day.
Series [24] relates to Staphylococcus aureus. The series can be described thus: Antibacterial activity against multi-drug resistant Staphylococcus aureus sa1 infected in BABL/C mouse assessed as reduction in bacterial load in lungs at 20 mg/kg, ip measured after 2 days. The conditions noted are these: time 2 day. The format is functional.

Consider `C=C[C@]1(C)C[C@@H](OC(=O)CSc2cc[n+](CCCCCCC)cc2)[C@]2(C)[C@H](C)CC[C@]3(CCC(=O)[C@H]32)[C@@H](C)[C@@H]1O.[I-]`, for which the MIC (commonly the lowest concentration that inhibits growth of the organism) is 8 mg/L in series [1]; 2 mg/L in series [2]; 4 mg/L in series [3]; 0.125 mg/L in series [4]; 0.5 mg/L in [5]; 16 mg/L in [6]. Besides, the minimal inhibitory concentration (MIC) in series [7] amounted to 0.25 mg/L; in series [8], 16 mg/L; in series [9], 4 mg/L; in [10] it was 32 mg/L; in series [11], 0.5 mg/L; in [14], 0.5 mg/L. Also, in [15], the MIC was 0.5 mg/L. Further, the values for the Activity in [12], in [23] and in series [24] were 2 log10CFU/ml, 4.17 log10CFU/ml and 3.29 log10CFU/ml, respectively. Further, the outcome in [13], in series [17], in series [18], in [19] and in series [22] was Active. Also, in series [16], the Time was 2.75 h. Also, the hemolysis at 5 min, 200 ug/ml in series [20] is below 14%. Further, the LD50 (commonly the dose at which mortality reaches 50%) at 336 h in [21] worked out at 879 mg/kg.
